Data reported in ChEMBL document CHEMBL1201862, “PubChem BioAssay data set” (2004).
The source made the active and inactive calls. Cut-off read from the data, not from the text of the source: actives have a measured IC50 and inactives only a lower limit.

Target: Envelope glycoprotein gp160 (Human immunodeficiency virus 1, UniProt Q6QLK5)
Assay: cell-free HIV fusion peptide-binding blockers – biochemical, uHTS, fluorescence dequenching, […] (AID 1986)

Chain of Envelope glycoprotein gp160 (Q6QLK5 whole entry, the tested form may be a part): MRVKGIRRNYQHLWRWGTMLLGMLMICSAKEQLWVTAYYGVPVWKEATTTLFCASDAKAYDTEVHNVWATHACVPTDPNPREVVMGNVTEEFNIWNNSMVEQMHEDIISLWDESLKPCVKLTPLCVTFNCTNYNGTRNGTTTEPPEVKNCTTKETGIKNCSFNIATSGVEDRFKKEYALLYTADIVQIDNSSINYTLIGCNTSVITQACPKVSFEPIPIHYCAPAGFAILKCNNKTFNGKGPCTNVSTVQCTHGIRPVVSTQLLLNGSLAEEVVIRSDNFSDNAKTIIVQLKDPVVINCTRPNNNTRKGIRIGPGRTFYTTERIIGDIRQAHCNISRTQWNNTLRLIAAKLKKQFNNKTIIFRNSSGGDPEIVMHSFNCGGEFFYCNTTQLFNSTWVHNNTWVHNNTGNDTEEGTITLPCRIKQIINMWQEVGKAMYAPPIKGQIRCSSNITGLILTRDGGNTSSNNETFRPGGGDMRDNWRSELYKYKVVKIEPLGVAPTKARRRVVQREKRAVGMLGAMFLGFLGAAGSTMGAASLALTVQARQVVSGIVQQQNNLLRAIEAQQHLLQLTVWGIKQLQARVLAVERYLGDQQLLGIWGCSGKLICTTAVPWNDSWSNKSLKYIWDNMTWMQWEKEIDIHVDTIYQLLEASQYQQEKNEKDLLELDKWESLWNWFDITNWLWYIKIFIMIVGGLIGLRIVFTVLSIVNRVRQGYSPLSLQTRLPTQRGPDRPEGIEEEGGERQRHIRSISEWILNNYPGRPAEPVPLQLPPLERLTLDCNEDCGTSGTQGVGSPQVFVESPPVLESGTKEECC

Row | Structure (SMILES) | IC50
1 | O=C(Nc1cc(C(=O)Nc2ccccc2C(=O)O)cc(C(=O)Nc2ccccc2C(=O)O)c1)c1ccccc1 | 6.36 µM (active)
2 | COc1ccc(C(=O)Nc2ccc(/C(C)=N/NC(=O)c3ccncc3)cc2)cc1 | 15 µM (active)
